Some test systems named below: A498; A549; ACHN; BT-549; HCT-15; HOP-62; KM12; LOX IMVI; MDA-MB-435; Malme-3M; NCI-H23; NCI-H460; OVCAR-5; RXF 393; SK-OV-3; SNB-75; SR; TK-10; UACC-257; UACC-62.
Test in all cases: NCI anticancer screen, dose series, 48 h

The structures appear in SMILES notation.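 Cells were grown in 96-well plates and exposed to each compound for 48 hours at five concentrations; endpoints were interpolated linearly between bracketing concentrations, or set to the highest concentration if not reached. GI50 is the concentration that inhibits growth by half.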 Activity calls are given as the source filed them. Cut-off read from the data, not from the text of the source: active = GI50 up to about 1.1 µM and inactive = higher.

The values that follow come from ChEMBL document CHEMBL1201862, “PubChem BioAssay data set” (2004).

Turning to `Cc1ccc(NC(Nc2ccc(C)cc2C)=C(/C=C(\Cl)[N+](=O)[O-])[N+](=O)[O-])c(C)c1`, the GI50 is 18.2 µM (inactive) with A498; 17.3 µM (inactive) in the test on A549; 2.97 µM (inactive) in the test on ACHN; 3.46 µM (inactive) in the test on BT-549; 2.92 µM in the test with HCT-15; 17.7 µM (inactive) in the test on HOP-62. Further, the GI50 is 10.4 µM (inactive) in the test on KM12; 1.64 µM (inactive) in the test with LOX IMVI; 2.87 µM (inactive) in the test with MDA-MB-435; 3.09 µM (inactive) in the test with Malme-3M; 5.94 µM (inactive) in the test on NCI-H23; 16.6 µM (inactive) in the test on NCI-H460. The GI50 in the test on OVCAR-5 was 4.36 µM (inactive); with RXF 393 it was 1.72 µM (inactive); in the test on SK-OV-3, 5.18 µM (inactive); in the test on SNB-75, 1.11 µM (active); in the test on SR it was 1.28 µM (inactive); with TK-10 it was 4.37 µM (inactive). Further, the figures for the GI50 with UACC-257 and in the test on UACC-62 were 4.81 µM (inactive) and 3.3 µM (inactive), respectively.

`COc1ccc(C2C(Cl)C(=O)N2NC(=O)c2ccc(N)cc2)cc1OC` (stereo not given): the GI50 was 16.6 µM (inactive) with A498; 15.4 µM (inactive) in the test on A549; 13.7 µM (inactive) with ACHN; 5.04 µM (inactive) in the test with BT-549; 7.46 µM with HCT-15; 15.9 µM (inactive) in the test with HOP-62. The GI50 with KM12 was 1.52 µM (inactive); in the test with LOX IMVI, 1.5 µM (inactive); with MDA-MB-435, 5.87 µM (inactive); in the test with Malme-3M it was 12.5 µM (inactive); in the test on NCI-H23, 6.08 µM (inactive); in the test with NCI-H460 it was 20.1 µM (inactive). For the same compound, the GI50 in the test on OVCAR-5 is 19.1 µM (inactive); in the test with RXF 393, 15.3 µM (inactive); in the test on SK-OV-3 it was 18.8 µM (inactive); in the test on SNB-75, 15.6 µM (inactive); in the test with SR, 2.2 µM (inactive); with TK-10, 17 µM (inactive). In addition, the GI50 in the test with UACC-257 is 14.5 µM (inactive); in the test on UACC-62 it was 7.29 µM (inactive).

Regarding `NS(=O)(=O)c1ccc(NC(=O)N/N=C/c2ccccc2[N+](=O)[O-])cc1`, the GI50 with A498 was > 100 µM (inactive); in the test with A549, > 100 µM (inactive); with ACHN, 66.7 µM (inactive); in the test on BT-549, 45.4 µM (inactive); in the test with HCT-15, 35 µM; with HOP-62, 40.8 µM (inactive). Further, the GI50 is 36 µM (inactive) in the test with KM12; 44.7 µM (inactive) in the test on LOX IMVI; 19 µM (inactive) with MDA-MB-435; 78.2 µM (inactive) in the test with Malme-3M; 41.6 µM (inactive) with NCI-H23; > 100 µM (inactive) in the test on NCI-H460. Further, the GI50 in the test with OVCAR-5 is > 100 µM (inactive); in the test with RXF 393, > 100 µM (inactive); in the test on SK-OV-3, 45.5 µM (inactive); in the test on SNB-75, > 100 µM (inactive); with SR, 17.9 µM (inactive); with TK-10, > 100 µM (inactive). Also, the GI50 with UACC-257 was 79.4 µM (inactive); in the test with UACC-62, 75.3 µM (inactive).

For the compound `OC1(C2(c3ccc(Cl)cc3)CCCC2)c2ccccc2C2=NCCN21` (stereo not given), the GI50 is 15.7 µM (inactive) in the test with A498; 15.8 µM (inactive) in the test with A549; 16.7 µM (inactive) with ACHN; 16.8 µM (inactive) in the test on BT-549; 15.6 µM in the test on HCT-15; 17.4 µM (inactive) in the test on HOP-62. In addition, the GI50 was 18.1 µM (inactive) in the test on KM12; 14.4 µM (inactive) with LOX IMVI; 12.6 µM (inactive) in the test on MDA-MB-435; 17.7 µM (inactive) in the test on Malme-3M; 18.7 µM (inactive) in the test on NCI-H23; 14.3 µM (inactive) in the test on NCI-H460. Besides, the GI50 in the test with OVCAR-5 is 15.8 µM (inactive); with RXF 393, 1.68 µM (inactive); with SK-OV-3, 18.8 µM (inactive); with SNB-75, 3.83 µM (inactive); with SR, 18.1 µM (inactive); in the test with TK-10 it was 15.1 µM (inactive). For the same compound, the GI50 in the test with UACC-257 was 14.2 µM (inactive); in the test with UACC-62, 16.1 µM (inactive).
